Measurements reported in US6010854A, “Autoantibodies to neurotransmitter receptors” (University of Utah Research Foundation, priority 1997, dated 2000).

Assays:
Format in all cases: cell-based
[1] = tested on: glutamate receptors, fetal mouse cortical neurons in culture; experiment: Whole cell currents evoked in voltage-clamped neurons in culture; conditions: 100 μM NMDA with 1 μM glycine, -75 mV, 1 mM MgCl2
Protocol: To examine functional consequences of antibody binding to glutamate receptors, electrophysiological methods were used to record whole cell currents from mouse cortical neurons in culture. Neuronal cultures from fetal (E14-16) mouse cortical and hippocampal structures were prepared on poly-L-lysine-coated 35 mm "FALCON" dishes according to G. Skeen et al., 44 Molec. Pharmacol. 443 (1993), hereby incorporated by reference. Cultures were fed every other day using a growth medium consisting of DMEM, 10% horse serum, 30 mM glucose, and 0.5 mM glutamine. Arabinosylcytosine (ARA-C) was added for 1 day during the first week in culture to suppress growth of non-neuronal cells. Electrophysiological experiments were performed on 2-5 week old cultures at room temperature. External solution consisted of 145 mM NaCl, 1.5 mM KCl, 1 mM CaCl2, 1 mM MgCl2, 10 mM Na-HEPES, 10 mM glucose, 30 mM sucrose at pH 7.4, 320 mOsm. Internal solution consisted of 153 mM CsCl, 10 mM Cs-HEPES, 4 mM MgCl2, 5 mM EGTA at pH 7.35, 300 mOsm. Solutions were designed for measurement of predominantly sodium inward currents and to block NMDA receptor currents when neurons are voltage clamped at -75 mV. […]
Currently, the composition of native GluR's and GABAR's is unknown and the potential diversity of native receptors is immense. […] Five cells are recorded for each paradigm and antibody. […]

[2] = tested on: anti-GluR3 antibody-evoked currents, mouse cortical neurons in culture; experiment: Block of anti-GluR3 antibody-evoked whole cell currents; conditions: for blockage of anti-GluR3 antibody-evoked currents: CNQX 40 μM, MK-801 10 μM, peptides 0.5 mg/ml incubated with serum or IgG for 15 minutes
[3] = tested on: currents evoked by serum from a Rasmussen's encephalitis patient, fetal mouse cortical neurons; experiment: Block of whole cell currents evoked by serum from a Rasmussen's encephalitis patient
Protocol: To examine functional consequences of antibody binding to glutamate receptors, electrophysiological methods were used to record whole cell currents from mouse cortical neurons in culture. Neuronal cultures from fetal (E14-16) mouse cortical and hippocampal structures were prepared on poly-L-lysine-coated 35 mm "FALCON" dishes according to G. Skeen et al., 44 Molec. Pharmacol. 443 (1993), hereby incorporated by reference. Cultures were fed every other day using a growth medium consisting of DMEM, 10% horse serum, 30 mM glucose, and 0.5 mM glutamine. Arabinosylcytosine (ARA-C) was added for 1 day during the first week in culture to suppress growth of non-neuronal cells. Electrophysiological experiments were performed on 2-5 week old cultures at room temperature. External solution consisted of 145 mM NaCl, 1.5 mM KCl, 1 mM CaCl2, 1 mM MgCl2, 10 mM Na-HEPES, 10 mM glucose, 30 mM sucrose at pH 7.4, 320 mOsm. Internal solution consisted of 153 mM CsCl, 10 mM Cs-HEPES, 4 mM MgCl2, 5 mM EGTA at pH 7.35, 300 mOsm. Solutions were designed for measurement of predominantly sodium inward currents and to block NMDA receptor currents when neurons are voltage clamped at -75 mV. […] To block other currents, 0.2-1 μM tetrodotoxin (TTX), 10 μM picrotoxin, 10 nM strychnine were added to the external solution. External solution was perfused continuously at about 2 ml/min. […]

Molecule | current evoked by NMDA [1] | blockage of anti-GluR3 antibody-evoked currents [2] | Antibody-evoked currents reduced to % of control ([2]; 40 μM, rabbit serum 1:8, 6 cells) | blockage of currents evoked by serum from a Rasmussen's encephalitis patient [3]
CN[C@H](CC(=O)O)C(=O)O [NMDA, N-methyl-D-aspartate] | No current was evoked | – | – | –
C[C@]12N[C@H](Cc3ccccc31)c1ccccc12 [MK-801, reference compound] | – | had no effect | – | –
N#Cc1cc2c(cc1[N+](=O)[O-])=NC(=O)C(=O)N=2 [CNQX, 6-cyano-7-nitro-quinoxaline-2,3-dione, reference compound] | – | rapid, reversible, and voltage independent | 4±20 % of control | –
GluR3A: synthetic peptide, amino acids 245-274 of GluR3 (SEQ ID NO:1) (NNENPMVQQFIQRWVRLDEREFPEAKNAP) | – | did not block antibody-evoked currents | – | does not
